Test results from patent US20160108135A1, “GHRELIN IN THE DIAGNOSIS OF CNS DISORDERS” (priority 2013, published 2016).
Entries after “also recorded” stand apart in the source; their conditions may differ. Ends that are not written are not given here. * marks the point of attachment. Octanoyl = CCCCCCCC(=O)*

Tests used:
[1] = tested on: dividing cells (Ki67+) in the sub-granular zone of the dentate gyrus; experiment: Ki67 cell proliferation in hippocampal dentate gyrus of wild-type and ghsr-/- mice; format: in vivo; details: i.v. 48 μg/day for 7 days; for Ki67+ cells (cell proliferation) in the DG of adult wild-type mice: vs saline
Protocol: To further examine the role of ghrelin in enhancing cell proliferation in the SGZ, the effect of peripherally administered ghrelin in both wild-type and ghrelin-receptor null (ghsr^−/−) mice (Zigman et al. J. Clin. Invest (2005)115 (12:3564-72)) was analysed.
Adult growth hormone secretagogue receptor (GHSR)-null mice (8-10 weeks-old) and their wild-type littermates were used. These were derived from crosses between animals that were heterozygous for the GHSR-null allele and that had been backcrossed >10 generations onto a C57BL6/J genetic background. Metabolic aspects of these mice have been published (Davies et al. 2009 Molecular Endocrinology, 23(6), 914-24.).
Ghrelin was administered peripherally via an intravenous osmotic mini-pump at a rate of 1 μl/hour with a total of 48 μg/day to groups of 6 mice. Control groups were given peripheral saline.
After 7 days, mice were killed by cervical dislocation whole brain was removed and immediately snap frozen on dry ice.
(§1) Cell proliferation in the hippocampal dentate gyms was subsequently analysed using a one-in-fifteen series of 10 μm sections (150 μm apart) from each animal. These were stained for Ki67 immunofluorescence and a primary antibody rabbit anti-Ki67 (1:500 Abcam) applied. Immunolabelled cells were counted throughout the rostro-caudal extent of the granule cell layer and quantified.
(§2) Immunolabelled cells were counted bilaterally using a ×40 objective (Zeiss Axioscope) throughout the rostro-caudal extent of the granule cell layer (GCL). Resulting numbers were divided by the number of coronal sections analyzed and multiplied by the distance between each section to obtain an estimate of the number of cells per hippocampus (and divided by 2 to obtain the total per dentate gyms).
All experiments and analyses were performed blind to genotype and treatment.
Statistical analyses were carried out using GraphPad Prizm 6.0 for Mac. Statistical significance was assessed by unpaired two-tailed Student's t-test or one-way ANOVA with Bonferroni's post-hoc test unless described otherwise: *, P<0.05; **, P<0.01; ***, P<0.001.
(§3) To determine whether unacylated-ghrelin (UAG) regulates NSPC plasticity, cell proliferation and immature neurons were quantified in wild-type mice following either peripheral administration of saline or UAG (i.v, 48 μg/day, n=6/group) for 7-days. The method was similar to that described in Example 1.

[2] = tested on: immature DCX+ neurons within the SGZ; experiment: Immature DCX+ neurons in the SGZ of wild-type mice; format: in vivo; details: i.v. 48 μg/day for 7 days, vs vehicle
Source text: as §1, §2, §3

Ghsr = details: cited from earlier work
adult rat hippocampus = experiment: BrdU+ cell proliferation in adult rat hippocampus after 7-day i.v. infusion (FIG. 1A); format: in vivo; details: 7-day i.v. infusion 80 μg/day; BrdU 50 mg/kg i.p 30 minutes prior to brain collection; vs vehicle
[3] = tested on: spatial pattern separation; experiment: Spontaneous location recognition (SLR) task, spatial pattern separation; format: in vivo, rat; details: rats, 10 μg/kg i.p daily days 1-14, tested days 22-26
Protocol: A) Experimental paradigm B) Schematic of Spontaneous location recognition (SLR) task. During a sample phase animals were exposed to 3 identical objections (two were located close together (small separation) or very close together (X-small separation) and the 3rd was further away) for 10 minutes. 24 hours later the rats were exposed to 2 of the objects during the test phase and the time spent exploring each object was measured. Dotted objects indicate the original location during the sample phase. C) Discrimination ratios during the test phase for ‘novel’ conditions in the SLR task. […] D) Representative images of the new adult-born DG neurons (white arrows) co-expressing NeuN^+ and BrdU^+. […] Scale bar=100 μm.
(§4) Adult male Lister-hooded rats (n=12/group) were given daily injections of either saline or ghrelin (10 μg/kg i.p) (days 1-14) and BrdU (50 mg/kg i.p) on days 5-8 prior to analysis of spatial pattern separation using a spontaneous location recognition task (SLR) on days 22-26.
To reduce/avoid the acute LTP-mediated effects on pattern separation the final injection of ghrelin was given 7 days before the start of cognitive testing.

[4] = tested on: new adult-born DG neurons; experiment: New adult-born neurons (BrdU+/NeuN+) and neuroblasts (DCX+) in rat DG; format: in vivo; details: rats; for total number of new adult-born neurones (BrdU+/NeuN+) in the DG: 10 μg/kg i.p daily days 1-14, BrdU days 5-8, vs saline
Protocol: as §4
Animals were anesthetized with sodium pentobarbital and perfused transcardially with 0.9% NaCl solution, followed by 4% paraformaldehyde (PFA) in 0.1M phosphate buffer, pH 7.4. Brains were post-fixed in 4% PFA for 24 h, and cryoprotected in 30% sucrose for 24 h. The brains were then sectioned on a freezing-stage microtome into a 30 μm thick coronal section series. Immunohistochemical staining was performed on free-floating sections.
For detection of BrdU, sections were pre-treated with 2N HCl for 30 mins at 37° C. and washed in 0.1 M borate buffer, pH8.5, for 10 min. Immunofluorescent double-labeling was performed.
Primary antibodies used were: mouse anti-BrdU (1:50 AbD Serotec, UK), goat anti-doublecortin (Santa Cruz Biotechnology, USA), mouse anti-NeuN (Chemicon, Temecula, Calif., USA). Sections were also stained with Hoechst (Invitrogen) and mounted with prolong-gold anti-fade reagent (Invitrogen).
A one-in-twelve series of 30 μm sections (360 μm apart) from each animal was immunohistologically stained (as described in Example 1 above) and analysed by fluorescent and/or confocal microscopy. Immunolabelled cells were counted also as described in Example 1. Only cells with complete/strong BrdU immunoreactivity, oval nuclei, were counted.

[5] = rats; 10 μg/kg i.p; cited from earlier work

Substance | Ki67+ cells (cell proliferation) in the DG of adult wild-type mice [1] | number of immature DCX+ neurons within the SGZ [2] | binding or activation of Ghsr (Ghsr) | number of BrdU+ cells in adult rat hippocampus (adult rat hippocampus) | Ki67+ cells (cell proliferation) in the DG of ghsr-/- mice ([1]; ghrelin-receptor null (ghsr-/-) mice) | Ki67+ cells (cell proliferation) in the DG of adult wild-type mice ([1]; listed as Ghrelin) | SLR task, discrimination of 'novel' location, X-small separation condition (pattern separation) [3] | SLR task, discrimination of 'novel' location, small separation condition [3] | SLR task, discrimination of 'novel' location, X-small separation condition (pattern separation) ([3]; listed as acyl-ghrelin) | total number of new adult-born neurones (BrdU+/NeuN+) in the DG [4] | total number of new adult-born neurones (BrdU+/NeuN+) in the DG ([4]; listed as Ghrelin) | total number of new adult-born neurones (BrdU+/NeuN+) in the DG ([4]; listed as acyl-ghrelin) | DG neuroblast number (DCX+) ([4]; 14 days after the final injection, data not shown) | food intake [5]
UAG: unacylated-ghrelin, the de-acylated form of ghrelin (GSSFLSPEHQRVQQRKESKKPPAKLQPR; Ghrelin-28 unacylated; UniProt Q9UBU3 24-51, looked up) | impairments observed in hippocampal cell proliferation; also recorded: reduced the number of dividing cells; also recorded: attenuated hippocampal cell proliferation | impairments; also recorded: reduced; also recorded: significant reduction in the number of immature DCX^+ neurons | does not bind or activate Ghsr |  |  |  |  |  |  |  |  |  |  | 
ghrelin: gut hormone, 28 amino acid peptide with octanoyl modification on Ser-3; endogenous ligand of GHS-R 1a (GSS(Octanoyl)FLSPEHQRVQQRKESKKPPAKLQPR; UniProt Q9UBU3 24-51, looked up) | increased Ki67^+ cells |  |  | increased the number of BrdU^+ cells | no corresponding increase was observed; also recorded: inhibited the proliferative effect of ghrelin | significant increase in cell proliferation | only ghrelin treated rats showed enhanced exploratory behaviour; also recorded: able to distinguish between very similar spatial locations | enhanced exploratory behaviour for the ‘novel’ location in the small separation condition; also recorded: able to distinguish similar but distinct spatial locations | improved pattern separation learning | significantly increased | significantly increased the number of new adult-born neurons | increased the number of new adult born neurons | remained significantly higher | increase food intake
